In patent US5516784A, “Anti-HIV (AIDS) agents” (Schering Corporation, priority 1994, dated 1996) one finds inhibition and IC50 data, which are given here for 43 compounds.

As usually defined, the inhibition is the percentage by which the read-out fell short of the control. The term IC50 denotes the concentration needed to halve the response being measured.

Structures are written as SMILES.

For the first test, the target named is T1, HIV1 protease (Human immunodeficiency virus type 1 group M subtype B, UniProt P04585). The test is described as follows: Test 3: inhibition of proteolytic activity of HIV-1 protease by scintillation proximity assay (SPA). Conditions: IC50 >500 nM; read-out: Enzyme Assays (SPA) % inhibition. It counts as biochemical. An excerpt: TEST 3-INHIBITION OF PROTEOLYTIC ACTIVITY OF HIV-1-PROTEASE AS DETERMINED BY SCINTILLATION […] ASSAY (SPA).
This is an alternative assay to test #1 and is used to determine the ability of compounds to inhibit the HIV1 protease activity. The SPA assay for HIV1 protease has been developed by Amersham Corporation, Arlington Heights, Ill., and is available for commercial use. In this system the substrate for HIV1 protease, AcN-(I^125)[…]SPA bead, is cleaved by the HIV1 protease at the Phe-Phe bond releasing the I^125 -labelled peptide fragment from the SPA bead. This event causes removal of detectable signal from the microsphere bead indicated by reduction in radioactivity (measured in CPM), which is proportional to the proteolytic activity. The substrate, and the HIV 1 protease were incubated in presence of synthetic compound in various dilutions at room temperature for 40 minutes, and the concentration of the compound required to inhibit the proteolytic activity by 50% (IC50) was determined.
For orientation: Scintillation proximity formats need no separation of bound from free tracer.
`CCC(C)[C@H](NC(=O)c1ccc2ccccc2n1)C(=O)N[C@@H](Cc1ccccc1)[C@H](O)COc1ccccc1C(=O)NC(C)(C)C` (some centres unmarked) [Compound 38]: the inhibition at 0.5 µM was determined as 46%.
`CC(C)(C)NC(=O)c1ccccc1OC[C@H](O)[C@H](Cc1ccccc1)NC(=O)[C@H](CC(N)=O)NC(=O)c1nc2ccccc2nc1O` [Compound 63]: the inhibition at 0.5 µM was 35%.
In the case of `CC(C)(C)NC(=O)c1ccccc1OC[C@@H](O)[C@H](Cc1ccccc1)NC(=O)[C@H](CC(N)=O)NC(=O)c1nc2ccccc2nc1O` [Compound 64], the inhibition at 0.5 µM came out at 36%.
For `CC(C)(C)NC(=O)c1ccccc1OC[C@@H](O)[C@H](Cc1ccccc1)NC(=O)[C@H](CC(N)=O)NC(=O)c1cnc2nc(N)nc(O)c2n1` [Compound 68], the inhibition at 0.5 µM came to 36%.

Still in this test, the particulars now being: SPA; room temperature, 40 minutes; read-out: Enzyme Assays (SPA) IC50.
Take `NC(=O)C[C@H](NC(=O)c1ccc2ccccc2n1)C(=O)N[C@@H](Cc1ccccc1)[C@H](O)CSC1CCCC1C(=O)Nc1ccccc1` (single isomer, unassigned) [Compound 15]: the IC50 was above 200 nM.
Turning to `NC(=O)C[C@H](NC(=O)c1ccc2ccccc2n1)C(=O)N[C@@H](Cc1ccccc1)[C@H](O)CSC1CCCC1C(=O)Nc1ccccc1` (single isomer, unassigned) [Compound 17], the concentration for half-maximal inhibition (IC50) came out at 200 nM.
On to `CC(C)(C)NC(=O)c1cccnc1OC[C@H](O)[C@H](Cc1ccccc1)NC(=O)[C@H](CC(N)=O)NC(=O)c1ccc2ccccc2n1` [Compound 6], for which the IC50 was above 500 nM.
On to `CC(C)(C)NC(=O)c1c(OC[C@@H](O)[C@H](Cc2ccccc2)NC(=O)[C@H](CC(N)=O)NC(=O)c2ccc3ccccc3n2)ccc2ccccc12` [Compound 10], for which the IC50 was 110 nM.
Regarding `CC(C)(C)NC(=O)c1cc2ccccc2cc1OC[C@@H](O)[C@H](Cc1ccccc1)NC(=O)[C@H](CC(N)=O)NC(=O)c1ccc2ccccc2n1` [Compound 11], the IC50 amounted to 280 nM.
For the compound `CC(C)(C)NC(=O)c1ccc2ccccc2c1OC[C@@H](O)[C@H](Cc1ccccc1)NC(=O)[C@H](CC(N)=O)NC(=O)c1ccc2ccccc2n1` [Compound 12], the IC50 was 230 nM.
With `NC(=O)C[C@H](NC(=O)c1ccc2ccccc2n1)C(=O)N[C@@H](Cc1ccccc1)[C@@H](O)CSC1CCCC1C(=O)Nc1ccccc1` (some centres unmarked) [Compound 14], the IC50 is above 200 nM.
On to `NC(=O)C[C@H](NC(=O)c1ccc2ccccc2n1)C(=O)N[C@@H](Cc1ccccc1)[C@H](O)CSC1CCCC1C(=O)Nc1ccccc1` (some centres unmarked) [Compound 21], for which the IC50 was above 200 nM.
For the compound `NC(=O)C[C@H](NC(=O)c1ccc2ccccc2n1)C(=O)N[C@@H](Cc1ccccc1)[C@@H](O)CSc1nc2ccccc2[nH]1` [Compound 22], the IC50 is above 200 nM.
On to `CC(C)(C)NC(=O)c1ccc(SC[C@H](O)[C@H](Cc2ccccc2)NC(=O)[C@H](CC(N)=O)NC(=O)c2ccc3ccccc3n2)cc1` [Compound 23], for which the IC50 is above 200 nM.
Consider `CC(C)(C)NC(=O)c1ccc(SC[C@@H](O)[C@H](Cc2ccccc2)NC(=O)[C@H](CC(N)=O)NC(=O)c2ccc3ccccc3n2)cc1` [Compound 24], for which the IC50 was above 200 nM.
For the compound `CC(C)(C)NC(=O)c1cccc(SC[C@H](O)[C@H](Cc2ccccc2)NC(=O)[C@H](CC(N)=O)NC(=O)c2ccc3ccccc3n2)c1` [Compound 25], the IC50 was above 200 nM.
Regarding `CC(C)(C)NC(=O)c1cccc(SC[C@@H](O)[C@H](Cc2ccccc2)NC(=O)[C@H](CC(N)=O)NC(=O)c2ccc3ccccc3n2)c1` [Compound 26], the IC50 is above 200 nM.
Turning to `CC(C)(C)NC(=O)CCSC[C@@H](O)[C@H](Cc1ccccc1)NC(=O)[C@H](CC(N)=O)NC(=O)c1ccc2ccccc2n1` [Compound 28], the IC50 was above 200 nM.
For `NC(=O)C[C@H](NC(=O)c1ccc2ccccc2n1)C(=O)N[C@@H](Cc1ccccc1)[C@@H](O)CSc1ccccc1C(=O)NC12CC3CC(CC(C3)C1)C2` [Compound 29], the IC50 was above 200 nM.
As to `CC(C)(C)NC(=O)c1ccccc1SC[C@@H](O)[C@H](Cc1ccccc1)NC(=O)[C@H](Cc1ccccc1)NC(=O)c1ccc2ccccc2n1` [Compound 34], the IC50 is above 200 nM.
Take `CCC(C)[C@H](NC(=O)c1ccc2ccccc2n1)C(=O)N[C@@H](Cc1ccccc1)[C@H](O)CSc1ccccc1C(=O)NC(C)(C)C` (some centres unmarked) [Compound 36]: the IC50 is 132 nM.
On the same count and under the same terms, for `CCC(C)[C@H](NC(=O)c1ccc2ccccc2n1)C(=O)N[C@@H](Cc1ccccc1)[C@H](O)COc1ccccc1C(=O)NC(C)(C)C` (some centres unmarked) [Compound 38] the value was above 500 nM; for `CCC(C)C(NC(=O)c1ccc2ccccc2n1)C(=O)N[C@@H](Cc1ccccc1)[C@H](O)CSc1ccccc1C(=O)NC(C)(C)C` (some centres unmarked) [Compound 39], above 200 nM; for `CN(C)C(=O)C[C@H](NC(=O)c1ccc2ccccc2n1)C(=O)N[C@@H](Cc1ccccc1)[C@H](O)CSc1ccccc1C(=O)NC(C)(C)C` [Compound 42], above 200 nM.
`CC(C)(C)NC(=O)c1ccccc1OC[C@@H](O)[C@H](Cc1ccccc1)NC(=O)[C@H](CC(N)=O)NC(=O)c1cnc2ccccc2n1` [Compound 60]: the concentration for half-maximal inhibition (IC50) was found to be 48 nM.
As for `CC(C)(C)NC(=O)c1ccccc1OC[C@H](O)[C@H](Cc1ccccc1)NC(=O)[C@H](CC(N)=O)NC(=O)c1cc(O)c2ccccc2n1` [Compound 61], the IC50 stood at 410 nM.
On the same count and under the same terms, to `CC(C)(C)NC(=O)c1ccccc1OC[C@H](O)[C@H](Cc1ccccc1)NC(=O)[C@H](CC(N)=O)NC(=O)c1nc2ccccc2nc1O` [Compound 63] belongs above 500 nM; to `CC(C)(C)NC(=O)c1ccccc1OC[C@@H](O)[C@H](Cc1ccccc1)NC(=O)[C@H](CC(N)=O)NC(=O)c1nc2ccccc2nc1O` [Compound 64], above 500 nM.
`CC(C)(C)NC(=O)c1ccccc1OC[C@H](O)[C@H](Cc1ccccc1)NC(=O)[C@H](CC(N)=O)NC(=O)c1cnnc2ccccc12` [Compound 65]: the IC50 was 500 nM.
For the compound `CC(C)(C)NC(=O)c1ccccc1OC[C@@H](O)[C@H](Cc1ccccc1)NC(=O)[C@H](CC(N)=O)NC(=O)c1cnnc2ccccc12` [Compound 66], the IC50 came out at 124 nM.
For the compound `CC(C)(C)NC(=O)c1ccccc1OC[C@@H](O)[C@H](Cc1ccccc1)NC(=O)[C@H](CC(N)=O)NC(=O)c1cnc2nc(N)nc(O)c2n1` [Compound 68], the IC50 was above 500 nM.
Consider `Cc1c(C)c2c(c(C)c1O)CCC(C)(C(=O)N[C@@H](CC(N)=O)C(=O)N[C@@H](Cc1ccccc1)[C@@H](O)COc1ccccc1C(=O)NC(C)(C)C)O2` (some centres unmarked) [Compound 71], for which the IC50 was found to be 245 nM.
On to `CC(C)(C)NC(=O)c1ccccc1OC[C@@H](O)[C@H](CCc1ccccc1)NC(=O)[C@H](CC(N)=O)NC(=O)c1ccc2ccccc2n1` [Compound 76], for which the IC50 is above 500 nM.
With `CCC(C)[C@H](NC(=O)OC(C)(C)C)C(=O)N[C@@H](Cc1ccccc1)[C@H](O)CSc1ccccc1C(=O)NC(C)(C)C` (some centres unmarked) [IN 7], the IC50 is above 500 nM.
For the compound `CC(C)(C)NC(=O)c1ccccc1OC[C@@H](O)[C@H](Cc1ccccc1)NC(=O)[C@H](CC(N)=O)NC(=O)OCc1ccccc1` [IN 8], the IC50 was 125 nM.

The test is the same for the next values; noted with them: read-out: Enzyme Assays (SPA) IC50.
On to `CC(C)(C)NC(=O)c1ccccc1OC[C@H](O)[C@H](Cc1ccccc1)NC(=O)[C@H](CC(N)=O)NC(=O)c1ccc2c(c1)C(=O)c1ccccc1C2=O` [Compound 69], for which the 50% inhibitory concentration (IC50) stood at 84 nM.
In the case of `CC(C)(C)NC(=O)c1ccccc1OC[C@@H](O)[C@H](Cc1ccccc1)NC(=O)[C@H](CC(N)=O)NC(=O)c1ccc2c(c1)C(=O)c1ccccc1C2=O` [Compound 70], the IC50 was determined as 55 nM.
With `CC(C)(C)NC(=O)c1ccccc1OC[C@H](O)[C@H](Cc1ccccc1)NC(=O)[C@H](CC(N)=O)NS(=O)(=O)c1ccc2ccccc2c1` [Compound 73], the IC50 amounted to 425 nM.

For the next test, the target named is T1, HIV1 protease. The test is described as follows: Test 1: inhibition of proteolytic activity of HIV-1 protease (HPLC). It counts as biochemical. More on the design: proteolytic activity of HIV-1 protease. Conditions: HPLC; HIV Substrate III; read-out: Enzyme Assays (HPLC) IC50. The method, then:
TEST I-INHIBITION OF PROTEOLYTIC ACTIVITY OF HIV-1-PROTEASE
The ability of compounds of the invention to inhibit the proteolytic activity of HIV-1 protease was determined by using the method of Louis, et al., Biochem. Biophys. Res. Comm. 159:87-94, (1989), which is herein incorporated by reference. In using the method of Louis et al., HIV Substrate III, His-Lys-Ala-Arg-VaI-Leu-pNO2 Phe-Glu-Ala-Nle-Ser-NH2 purchased from Bachem Bioscience, Inc. Philadelphia, Pa. was used in place of the nonapeptide substrate […]amide.
For the compound `NC(=O)C[C@H](NC(=O)c1ccc2ccccc2n1)C(=O)N[C@@H](Cc1ccccc1)[C@@H](O)CSc1ncccn1` [Compound 1], the IC50 is above 50 nM.
Same read-out and setting: for `CCCCNC(=O)c1ccccc1S(=O)(=O)C[C@H](O)[C@H](Cc1ccccc1)NC(=O)[C@H](CC(N)=O)NC(=O)c1ccc2ccccc2n1` [Compound 9] the value was above 500 nM; for `NC(=O)C[C@H](NC(=O)c1ccc2ccccc2n1)C(=O)N[C@@H](Cc1ccccc1)[C@@H](O)CSC1CCCC1C(=O)Nc1ccccc1` (some centres unmarked) [Compound 16], above 500 nM; for `NC(=O)C[C@H](NC(=O)c1ccc2ccccc2n1)C(=O)N[C@@H](Cc1ccccc1)[C@@H](O)CSC1CCCC1C(=O)Nc1ccccc1` (some centres unmarked) [Compound 18], above 500 nM.
Same read-out and setting: to `CC(C)(C)NC(=O)CCSC[C@H](O)[C@H](Cc1ccccc1)NC(=O)[C@H](CC(N)=O)NC(=O)c1ccc2ccccc2n1` [Compound 27] belongs above 500 nM; to `NC(=O)C[C@H](NC(=O)c1ccc2ccccc2n1)C(=O)N[C@@H](Cc1ccccc1)[C@H](O)CSc1ccccc1C(=O)NC12CC3CC(CC(C3)C1)C2` [Compound 30], above 50 nM; to `CC(C)(C)NC(=O)c1ccccc1SC[C@H](O)[C@H](Cc1ccccc1)NC(=O)[C@@H]1CCCN1C(=O)c1ccc2ccccc2n1` [Compound 32], above 50 nM.
With `CC(C)(C)NC(=O)c1ccccc1SC[C@H](O)[C@H](Cc1ccccc1)NC(=O)[C@H](Cc1ccccc1)NC(=O)c1ccc2ccccc2n1` [Compound 33], the IC50 was above 500 nM.

The test is the same for the next values; noted with them: intermediate compound; read-out: IC50 in Test 1, Inhibition of Proteolytic Activity of HIV-1-Protease.
Regarding `CC(C)(C)NC(=O)c1ccccc1SCC(O)C(Cc1ccccc1)NC(=O)OC(C)(C)C` (centres unmarked), the IC50 was 3000 nM.
